Measurements taken from patent US10844002B2, “Lipids and lipid compositions for the delivery of active agents” (priority 2014, dated 2020).

Assay: Measurement of mRNA encapsulation in lipid nanoparticles (Quant-iT Ribogreen)
Format: physicochemical
Settings: LNP cationic lipid/DSPC/cholesterol/stealth lipid, N:P 4:1, leptin mRNA
Experimental: All equipment and disposable supplies are certified free of RNase activity by the manufacturer or rendered RNase free by use of the RNaseZap reagent (LifeTechnologies). mRNA is encapsulated at a cationic lipid amine to mRNA phosphate (N:P) molar ratio of 4:1. Lipids (cationic lipid, DSPC, cholesterol and lipidated PEG or stealth lipid) are dissolved in ethanol. The molar ratios are 40:10:38:2, respectively. The mixture is sonicated briefly, then gently agitated for 5 minutes and then maintained at 37° C. until use. mRNA is exchanged into citrate buffer pH 5.8-6.0 by use of Amicon Ultra-15 centrifugal concentrators, and the final concentration is adjusted to 0.5 mg/ml and held at 37° C. until use. An equal volume of lipids in ethanol, mRNA in citrate buffer, and citrate buffer alone are drawn into disposable syringes. Tubing leading from syringes containing lipids and mRNA are attached to the T junction, and tubing leading from the syringe containing citrate buffer alone is paired with the tubing exiting the T-junction over a collection vessel containing a stir bar on an active stir plate. Syringes are placed in a syringe pump set to expel contents at a flow rate of 1 ml per minute.
The pump is activated, and the collected mRNA in lipid nanoparticles is transferred to SnakeSkin dialysis tubing (10,000 MWCO, Thermo Scientific). Material is dialyzed against RNAse- and pyrogen-free 1× phosphate buffered saline overnight at 4° C.
Percent encapsulation of mRNA in lipid nanoparticles is determined using the Quant-iT Ribogreen RNA Assay kit (Life Technologies). The LNP-mRNA suspension is assayed in buffer (mRNA outside the particle), and buffer plus Triton X-100 detergent (total mRNA). The difference calculated is the mRNA inside the particle. Prepare a 1000 ng/mL stock from the RNA provided in the kit and use this to generate a standard curve (0 ng/ml, 15.63-1000 ng/ml) in TE and TE+0.75% Triton X-100. Prepare LNP-mRNA samples in TE buffer and TE buffer+0.75% Triton X-100 with appropriate dilution so that reading is in the range of standard curve (400-2,000 fold). In a 384-well plate (Costar non-treated #3573) add 0.04 ml of standard (in duplicate) or sample (in triplicate) per well. Dilute Ribogreen reagent 240-fold in TE buffer and add 0.06 ml per well. Mix contents of wells and measure fluorescence (excitation=480 nm, emission=520 nm). Subtract background values (no RNA) from standard and test sample values and determine the concentrations of RNA in the samples using the standard curves. Determine the percent encapsulation of the sample by dividing the difference in concentrations between sample+triton and sample in buffer alone by the sample+triton concentration.

SMILES: CCCCC/C=C\C/C=C\CCCCCCCCOc1ccc(OCCCCCCCC/C=C\C/C=C\CCCCC)c(COC(=O)CCCN(C)C)c1 [Example 1, 2,5-bis((9Z,12Z)-octadeca-9,12-dien-1-yloxy)benzyl 4-(dimethylamino)butanoate]
- % encapsulation (mRNA Leptin): 73.3%
